# Earlier results, collected in patent US20040053963A1, “Urotensin-II receptor antagonists” (priority 2003, published 2004).
# Test system: rat-isolated aorta
# Details: Ames et. al. Nature 1999, 401, 282
structure (smiles),measurement,value
CC(C)[C@H](NC(=O)[C@@H]1CSSC[C@H](NC(=O)[C@H](CC(=O)O)NC(=O)[C@@H]2CCCN2C(=O)[C@@H](NC(=O)[C@@H](N)CCC(=O)O)[C@@H](C)O)C(=O)N[C@@H](Cc2ccccc2)C(=O)N[C@@H](Cc2c[nH]c3ccccc23)C(=O)N[C@@H](CCCCN)C(=O)N[C@@H](Cc2ccc(O)cc2)C(=O)N1)C(=O)O [Human Urotensin-II],contractile activity,most potent contractile agonist identified to date
